Assay results as given in ChEMBL document CHEMBL1671713, “Synergy of caspofungin with human polymorphonuclear granulocytes for killing Candida albicans” (2010).

Key:
Assay type in all cases: functional
Candida albicans [1] = assay: Potentiation of human polymorphonuclear granulocytes-induced intracellular killing of compound pretreated Candida albicans for 1hr at 3.2 ug/ml after 90 mins (Rvb =48%)
Candida albicans [2] = assay: Potentiation of human polymorphonuclear granulocytes-induced intracellular killing of compound pretreated Candida albicans for 1hr at 2 ug/ml after 90 mins (Rvb =48%)
Candida albicans [3] = assay: Potentiation of human polymorphonuclear granulocytes-induced intracellular killing of Candida albicans at 3.2 ug/ml after 30 mins (Rvb =46%)
Candida albicans [4] = assay: Potentiation of compound pretreated human polymorphonuclear granulocytes-induced intracellular killing of Candida albicans at 2 ug/ml after 60 mins (Rvb =47%)
Candida albicans [5] = assay: Potentiation of human polymorphonuclear granulocytes-induced intracellular killing of compound pretreated Candida albicans for 1hr at 8 ug/ml after 30 mins (Rvb =46%)
Candida albicans [6] = assay: Potentiation of human polymorphonuclear granulocytes-induced intracellular killing of Candida albicans at 8 ug/ml after 90 mins (Rvb =48%)
Candida albicans [7] = assay: Potentiation of human polymorphonuclear granulocytes-induced intracellular killing of compound pretreated Candida albicans for 1hr at 8 ug/ml after 90 mins (Rvb =48%)
Candida albicans [8] = assay: Potentiation of human polymorphonuclear granulocytes-induced intracellular killing of compound pretreated Candida albicans for 1hr at 8 ug/ml after 60 mins (Rvb =47%)
Candida albicans [9] = assay: Potentiation of human polymorphonuclear granulocytes-induced intracellular killing of Candida albicans at 2 ug/ml after 90 mins (Rvb =48%)
Candida albicans [10] = assay: Potentiation of human polymorphonuclear granulocytes-induced intracellular killing of compound pretreated Candida albicans for 1hr at 2 ug/ml after 30 mins (Rvb =46%)
Candida albicans [11] = assay: Potentiation of compound pretreated human polymorphonuclear granulocytes-induced intracellular killing of Candida albicans at 3.2 ug/ml after 30 mins (Rvb =46%)
Candida albicans [12] = assay: Potentiation of human polymorphonuclear granulocytes-induced intracellular killing of Candida albicans at 2 ug/ml after 30 mins (Rvb =46%)
Candida albicans [13] = assay: Potentiation of human polymorphonuclear granulocytes-induced intracellular killing of Candida albicans at 8 ug/ml after 60 mins (Rvb =47%)
Candida albicans [14] = assay: Potentiation of compound pretreated human polymorphonuclear granulocytes-induced intracellular killing of Candida albicans at 8 ug/ml after 60 mins (Rvb =47%)
Candida albicans [15] = assay: Potentiation of human polymorphonuclear granulocytes-induced intracellular killing of compound pretreated Candida albicans for 1hr at 3.2 ug/ml after 60 mins (Rvb =47%)
Candida albicans [16] = assay: Potentiation of human polymorphonuclear granulocytes-induced intracellular killing of Candida albicans at 8 ug/ml after 30 mins (Rvb =46%)
Candida albicans [17] = assay: Potentiation of human polymorphonuclear granulocytes-induced intracellular killing of Candida albicans at 2 ug/ml after 60 mins (Rvb =47%)
Candida albicans [18] = assay: Potentiation of human polymorphonuclear granulocytes-induced intracellular killing of Candida albicans at 3.2 ug/ml after 90 mins (Rvb =48%)
Candida albicans [19] = assay: Potentiation of compound pretreated human polymorphonuclear granulocytes-induced intracellular killing of Candida albicans at 8 ug/ml after 30 mins (Rvb =46%)
Candida albicans [20] = assay: Potentiation of compound pretreated human polymorphonuclear granulocytes-induced intracellular killing of Candida albicans at 2 ug/ml after 90 mins (Rvb =48%)
Candida albicans [21] = assay: Potentiation of human polymorphonuclear granulocytes-induced intracellular killing of compound pretreated Candida albicans for 1hr at 2 ug/ml after 60 mins (Rvb =47%)
Candida albicans [22] = assay: Potentiation of compound pretreated human polymorphonuclear granulocytes-induced intracellular killing of Candida albicans at 2 ug/ml after 30 mins (Rvb =46%)
Candida albicans [23] = assay: Potentiation of compound pretreated human polymorphonuclear granulocytes-induced intracellular killing of Candida albicans at 3.2 ug/ml after 60 mins (Rvb =47%)
Candida albicans [24] = assay: Potentiation of human polymorphonuclear granulocytes-induced intracellular killing of Candida albicans at 3.2 ug/ml after 60 mins (Rvb =47%)
Candida albicans [25] = assay: Potentiation of compound pretreated human polymorphonuclear granulocytes-induced intracellular killing of Candida albicans at 8 ug/ml after 90 mins (Rvb =48%)
Candida albicans [26] = assay: Potentiation of compound pretreated human polymorphonuclear granulocytes-induced intracellular killing of Candida albicans at 3.2 ug/ml after 90 mins (Rvb =48%)
Candida albicans [27] = assay: Potentiation of human polymorphonuclear granulocytes-induced intracellular killing of compound pretreated Candida albicans for 1hr at 3.2 ug/ml after 30 mins (Rvb =46%)

## CC[C@H](C)C[C@H](C)CCCCCCCCC(=O)N[C@H]1C[C@@H](O)[C@@H](NCCN)NC(=O)[C@@H]2[C@@H](O)CCN2C(=O)[C@H]([C@H](O)CCN)NC(=O)[C@H]([C@H](O)[C@@H](O)c2ccc(O)cc2)NC(=O)[C@@H]2C[C@@H](O)CN2C(=O)[C@H]([C@@H](C)O)NC1=O [CASPOFUNGIN]
Candida albicans [1]
  Activity: 78%
Candida albicans [2]
  Activity: 82%
Candida albicans [3]
  Activity: 72%
Candida albicans [4]
  Activity: 76%
Candida albicans [5]
  Activity: 63%
Candida albicans [6]
  Activity: 83%
Candida albicans [7]
  Activity: 72%
Candida albicans [8]
  Activity: 66%
Candida albicans [9]
  Activity: 75%
Candida albicans [10]
  Activity: 69%
Candida albicans [11]
  Activity: 69%
Candida albicans [12]
  Activity: 71%
Candida albicans [13]
  Activity: 83%
Candida albicans [14]
  Activity: 82%
Candida albicans [15]
  Activity: 74%
Candida albicans [16]
  Activity: 74%
Candida albicans [17]
  Activity: 72%
Candida albicans [18]
  Activity: 86%
Candida albicans [19]
  Activity: 79%
Candida albicans [20]
  Activity: 82%
Candida albicans [21]
  Activity: 69%
Candida albicans [22]
  Activity: 72%
Candida albicans [23]
  Activity: 84%
Candida albicans [24]
  Activity: 75%
Candida albicans [25]
  Activity: 94%
Candida albicans [26]
  Activity: 91%
Candida albicans [27]
  Activity: 63%
